Assay results: the supplement of paper PMC10307832

Columns and labels:
Assay in all cases: relative viability (nuclei count vs DMSO), 5 days (fraction); higher = more cells survive
Elesclomol + Vorinostat = compound: CN(NC(=O)CC(=O)NN(C)C(=S)c1ccccc1)C(=S)c1ccccc1 [Elesclomol] + O=C(CCCCCCC(=O)Nc1ccccc1)NO [Vorinostat] (partner 1 µM)
How it was run: (§1)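 The day after seeding in 1536-well plates, lung cancer cell lines were treated by pin tool with a single drug, or with a fixed anchor-drug dose together with five library-drug doses (not always all listed) in √10 steps. After 5 days, a combined fix-and-stain solution (final 0.05% Triton X-100, 1% formaldehyde, 1 ug/ml Hoechst) was added. Nuclei counted on 4× images gave relative viability as treated counts over vehicle counts, reported as the median of duplicate plates.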

Elesclomol + Tozasertib = compound: CN(NC(=O)CC(=O)NN(C)C(=S)c1ccccc1)C(=S)c1ccccc1 [Elesclomol] + Cc1cc(Nc2cc(N3CCN(C)CC3)nc(Sc3ccc(NC(=O)C4CC4)cc3)n2)n[nH]1 [Tozasertib] (partner 0.1 µM)
How it was run: as §1

Elesclomol + Bortezomib = compound: CN(NC(=O)CC(=O)NN(C)C(=S)c1ccccc1)C(=S)c1ccccc1 [Elesclomol] + CC(C)C[C@H](NC(=O)[C@H](Cc1ccccc1)NC(=O)c1cnccn1)B(O)O [Bortezomib] (partner 0.002 µM)
How it was run: as §1

Elesclomol + Luminespib = compound: CN(NC(=O)CC(=O)NN(C)C(=S)c1ccccc1)C(=S)c1ccccc1 [Elesclomol] + CCNC(=O)c1noc(-c2cc(C(C)C)c(O)cc2O)c1-c1ccc(CN2CCOCC2)cc1 [Luminespib] (partner 0.01 µM)
How it was run: as §1

Elesclomol + Foretinib = compound: CN(NC(=O)CC(=O)NN(C)C(=S)c1ccccc1)C(=S)c1ccccc1 [Elesclomol] + COc1cc2c(Oc3ccc(NC(=O)C4(C(=O)Nc5ccc(F)cc5)CC4)cc3F)ccnc2cc1OCCCN1CCOCC1 [Foretinib] (partner 0.25 µM)
How it was run: as §1

| Cell Line | relative viability (Elesclomol + Vorinostat; first compound 0.003162 µM) | relative viability (Elesclomol + Vorinostat; first compound 0.01 µM) | relative viability (Elesclomol + Vorinostat; first compound 0.03162 µM) | relative viability (Elesclomol + Vorinostat; first compound 0.1 µM) | relative viability (Elesclomol + Tozasertib; first compound 0.003162 µM) | relative viability (Elesclomol + Tozasertib; first compound 0.01 µM) | relative viability (Elesclomol + Tozasertib; first compound 0.03162 µM) | relative viability (Elesclomol + Tozasertib; first compound 0.1 µM) | relative viability (Elesclomol + Bortezomib; first compound 0.003162 µM) | relative viability (Elesclomol + Bortezomib; first compound 0.01 µM) | relative viability (Elesclomol + Bortezomib; first compound 0.03162 µM) | relative viability (Elesclomol + Bortezomib; first compound 0.1 µM) | relative viability (Elesclomol + Luminespib; first compound 0.003162 µM) | relative viability (Elesclomol + Luminespib; first compound 0.01 µM) | relative viability (Elesclomol + Luminespib; first compound 0.03162 µM) | relative viability (Elesclomol + Luminespib; first compound 0.1 µM) | relative viability (Elesclomol + Foretinib; first compound 0.003162 µM) | relative viability (Elesclomol + Foretinib; first compound 0.01 µM) | relative viability (Elesclomol + Foretinib; first compound 0.03162 µM) | relative viability (Elesclomol + Foretinib; first compound 0.1 µM) |
| --- | --- | --- | --- | --- | --- | --- | --- | --- | --- | --- | --- | --- | --- | --- | --- | --- | --- | --- | --- | --- |
| LXF-289 | 0.79 | 0.779 | 0.706 | 0.483 | 0.193 | 0.17 | 0.188 | 0.174 | 0.997 | 0.998 | 0.968 | 0.673 | 0.676 | 0.661 | 0.691 | 0.316 | 0.979 | 0.942 | 0.894 | 0.684 |
| NCI-H23 | 0.559 | 0.385 | 0.318 | 0.0919 | 0.349 | 0.311 | 0.36 | 0.128 | 1.07 | – | 0.603 | 0.119 | 0.171 | 0.17 | 0.154 | 0.164 | 0.971 | 1.03 | 0.746 | 0.247 |
| NCI-H322M | 0.72 | 0.42 | 0.289 | 0.191 | 0.335 | 0.275 | 0.186 | 0.122 | 1.17 | – | 1.25 | 1.15 | 0.311 | 0.288 | 0.231 | 0.14 | 0.837 | 0.656 | 0.356 | 0.26 |
| NCI-H441 | 0.553 | 0.729 | 0.445 | 0.17 | 0.546 | 0.794 | 0.332 | 0.1 | 0.55 | 0.454 | 0.25 | 0.0495 | 0.312 | 0.446 | 0.29 | 0.111 | 1.07 | 0.924 | 0.513 | 0.127 |
| NCI-H460 | 0.712 | 0.508 | 0.275 | 0.018 | 0.497 | 0.365 | 0.116 | 0.0193 | 0.911 | 0.292 | 0.0099 | 0.0073 | 0.0311 | 0.0324 | 0.0198 | 0.0215 | 0.975 | 0.848 | 0.27 | 0.0259 |
| NCI-H520 | 0.775 | 0.662 | 0.225 | 0.0994 | 0.442 | 0.355 | 0.223 | 0.181 | 0.481 | 0.248 | 0.2 | 0.0916 | 0.238 | 0.188 | 0.193 | 0.164 | 0.757 | 0.771 | 0.251 | 0.111 |
| NCI-H596 | 0.632 | 0.577 | 0.485 | 0.219 | 0.925 | 0.828 | 0.598 | 0.178 | 1 | 1.04 | 0.95 | 0.156 | 0.845 | 0.924 | 0.787 | 0.186 | 0.918 | 1.03 | 0.764 | 0.158 |
| NCI-H647 | 0.24 | 0.337 | 0.133 | 0.0479 | 0.388 | 0.212 | 0.0671 | 0.0175 | 0.924 | 0.773 | 0.589 | 0.0718 | 0.113 | 0.0912 | 0.0748 | 0.0628 | 1.05 | 0.973 | 0.359 | 0.0921 |
